For data set [1] the following is noted: at 25° C.
The next data set has as its system tumor. Conditions: tumor bearing animals; cited from earlier work.

Molecules are shown by their SMILES.

Take `C[C@]1(c2nc3c(C(N)=O)cccc3[nH]2)CCCN1` [ABT-888 Crystalline Form 1, 2-((R)-2-Methylpyrrolidin-2-yl)-1H-benzimidazole-4-carboxamide Crystalline Form 1]: the “thermodynamic stability of crystalline form” value in data set [1] is on record as “most thermodynamically stable crystalline form of ABT-888”.

Consider `C[C@]1(c2nc3c(C(N)=O)cccc3[nH]2)CCCN1` [ABT-888, 2-((R)-2-methylpyrrolidin-2-yl)-1H-benzimidazole-4-carboxamide], for which, in the data set with tumor, the tumor growth result is reported as “limit tumor growth”.
